{"source": "patent US12358899B2", "about": "“Thyroid hormone receptor agonists and uses thereof” (XIZANG HAISCO PHARMACEUTICAL CO., LTD., priority 2018, dated 2025)", "key": {"[1]": {"test_system": "Thyroidectomized rats", "assay": "Heart safety evaluation in hypothyroid rat: heart rate", "assay_type": "in vivo", "settings": "0.1 mg/kg intraperitoneal injection, first 30 minutes", "method": "(§1) SD Rats underwent thyroidectomy and recovered for 10 days. T3 and T4 were tested to confirm the complete thyroidectomy. […] Note that the dose for these compounds was […] higher than their therapeutic dose (1 mg/kg by oral gavage) in mouse models. For comparison, thyroid hormone T3 was also tested at 0.1 mg/kg with intraperitoneal injection. […] After 6 hours, the heart tissues were collected to quantitate the expression of α-MHC, a thyroid hormone responsive and THRα-target gene in heart."}, "[2]": {"test_system": "α-MHC", "assay": "Heart safety evaluation in hypothyroid rat: cardiac α-MHC expression", "assay_type": "in vivo", "settings": "intraperitoneal, 37.5 mg/kg (T3 0.1 mg/kg), heart tissue after 6 hours", "method": "as §1"}, "[3]": {"test_system": "C57BL/6cnc mice", "assay": "Synergistic effect of Example 7 with other NASH compounds in mouse model", "assay_type": "in vivo", "settings": "NASH mice, single agents, 2-week treatment", "source_text": "There are other candidates being developped for inflammation, metabolism syndromes or NASH These include glucagon-like peptide-1 (GLP-1) receptor agonist liraglutide, peroxisome proliferator-activated receptor-α and -β (PPAR-α/δ) agonist elafibranor, and nuclear erythroid 2-related factor 2 (NRF2) activator bardoxolone methyl (CDDO-Me). These candidates target different proteins and pathways, therefore have different mechanisms of action related to steatosis, inflammation, and fibrosis.\nC57BL/6cnc mice were fed with high-fat diet containing 60 kacl % fat and 0.10% methionine (no added choline) (Research Diets, A06071302) for 12 weeks to induce NASH model. After 12-week diet induction, the mice had increased plasma levels of TC, LDL-c, ALT, and fibrosis markers. […] An Example 7 alone group and a vehicle group were also set up for controls. […] After 2-week treatment, serum biochemistry was measured; liver was collected to measure liver TC and TG. Livers were punched in 2 mm diameter and fixed, sectioned and stained with Sirius Red, and the fibrosis and steatosis were scored."}, "[4]": {"target": "T1, THRα-LBD (Homo sapiens, UniProt P10827)", "T1 construct": "purchased ThermoFisher", "T1 sequence (P10827 163-410 isoform P10827-2 limits assumed, other chains not shown)": "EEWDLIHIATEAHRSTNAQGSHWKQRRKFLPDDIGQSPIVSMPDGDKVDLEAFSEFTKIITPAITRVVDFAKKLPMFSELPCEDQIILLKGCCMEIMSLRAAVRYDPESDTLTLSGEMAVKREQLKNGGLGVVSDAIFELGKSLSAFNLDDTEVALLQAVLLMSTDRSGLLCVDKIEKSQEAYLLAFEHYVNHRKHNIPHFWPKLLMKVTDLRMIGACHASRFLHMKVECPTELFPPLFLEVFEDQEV", "assay": "THR coactivator recruitment assay (LanthaScreen TR-FRET), THRα", "assay_type": "biochemical", "description": "The coactivator recruitment assay was performed using LanthaScreen™ TR-FRET TR coactivator assay kit (ThermoFisher). […] The diluted test compounds were mixed with the same volume of other reagents (10 μl:10 μl). […] In addition, the selectivity for each compound was normalized for the selectivity of T3 run in the same assay."}, "[5]": {"test_system": "C57BL/6cnc mice", "assay": "Cholesterol-lowering efficacy in trans-fat AMLN diet-induced hypercholesterolemia mouse model", "assay_type": "in vivo", "settings": "AMLN diet mice, daily oral gavage 2 weeks, 0.3-3 mg/kg (Example 7) or 1 and 3 mg/kg", "method": "C57BL/6cnc mice were fed with AMVLN diet containing 40 Kcal % Fat, 20 Kcal % Fructose and 2% Cholesterol (Research Diets, D09100301) for 5 weeks to induce hypercholesterolemia. The cholesterol lowering efficacy of compounds disclosed herein were tested in two separate studies. […] Thyroid hormone T3 (0.1 mg/kg, intraperitoneal injection) was evaluated as a positive control in both studies. The treatment lasted two weeks with daily oral gavage. Blood samples were taken before the dosing on the first day and again at the end of study for detection of plasma cholesterol (TC), triglycerides (TG) and LDL-c. […] At the end of study, the liver tissues were taken for measuring the hepatic TC and TG levels. The compound concentration was quantified in blood, liver and heart."}, "[6]": {"test_system": "C57BL/6cnc mice", "assay": "Cholesterol-lowering efficacy in high cholesterol diet-induced hypercholesterolemia mouse model", "assay_type": "in vivo", "method": "To further confirm the PD effects of compounds, another diet induced NAFLD mouse model was used. C57BL/6cnc mice were fed with the diet containing 1.5% cholesterol and 0.5% cholic acid (Research Diets, D12109C) for 2 weeks prior to the initiation of treatment. The cholesterol lowering efficacy of compounds disclosed herein was tested in two separate studies. […] Thyroid hormone T3 (0.1 mg/kg, intraperitoneal injection) was evaluated as a positive control in the second study. The treatment lasted two weeks with daily oral gavage. Blood samples were taken at the end of study for plasma cholesterol and LDL-c detection. At the end of study, the liver tissues were taken for measurement of the hepatic cholesterol levels. DIO1 is a THRβ target gene in liver, and its mRNA level reflects the activity of THRO. Therefore, the expression of DIO1 was also quantitated in liver tissue by qPCR to examine the target engagement by these compounds. The compound concentration was quantified in blood, liver and heart."}, "[7]": {"target": "T2, CYP 1A2 (Homo sapiens, UniProt P05177)", "T2 construct": "from tissue; host or cells: human liver microsomes", "T2 sequence (P05177 1-516)": "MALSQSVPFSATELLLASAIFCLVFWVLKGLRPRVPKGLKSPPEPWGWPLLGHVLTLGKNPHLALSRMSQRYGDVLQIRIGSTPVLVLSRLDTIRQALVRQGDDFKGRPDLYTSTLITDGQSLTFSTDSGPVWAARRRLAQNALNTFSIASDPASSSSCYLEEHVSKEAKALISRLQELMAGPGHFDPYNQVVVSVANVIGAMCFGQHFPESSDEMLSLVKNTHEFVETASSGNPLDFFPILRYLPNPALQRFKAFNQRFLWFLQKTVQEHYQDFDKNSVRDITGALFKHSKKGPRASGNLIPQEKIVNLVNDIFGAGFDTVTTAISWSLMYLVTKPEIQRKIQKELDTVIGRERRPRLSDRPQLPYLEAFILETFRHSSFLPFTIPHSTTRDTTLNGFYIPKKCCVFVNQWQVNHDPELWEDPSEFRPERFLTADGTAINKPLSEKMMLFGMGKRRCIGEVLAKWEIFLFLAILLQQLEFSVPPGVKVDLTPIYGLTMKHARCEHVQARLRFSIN", "assay": "CYP inhibition in human liver microsome, 1A2", "assay_type": "in vitro ADME", "settings": "human liver microsomes, substrate phenacetin, top 50 μM; read-out: CYP450 inhibition IC50 1A2", "method": "(§2) Test compounds were evaluated for CYP inhibition using human liver microsomes (HLM). Test compounds were 1:3 serially diluted starting at 50 μM to generate 7 different concentrations. After incubation of diluted test compounds with HLM, a substrate cocktail composed of phenacetin (10 uM), amodiaquine (2 uM), diclofenac (5 uM), s-mephenytoin (30 uM), dextromethorphan (5 uM), and midazolam (2 uM) was added to check the remaining CYP activity for CYP 1A2, 2C8, 2C9, 2C19, 2D6 and 3A4. The CYP activity was measured by detecting the peak area of individual metabolites of know CYP substrates using LC/MS/MS. A percentage of inhibition of CYP was calculated at each final concentration of test compound, through which an IC50 was fitted to represent the inhibition potential."}, "[8]": {"target": "T3, CYP 2C8 (Homo sapiens, UniProt P10632)", "T3 construct": "from tissue; host or cells: human liver microsomes", "T3 sequence (P10632 1-490)": "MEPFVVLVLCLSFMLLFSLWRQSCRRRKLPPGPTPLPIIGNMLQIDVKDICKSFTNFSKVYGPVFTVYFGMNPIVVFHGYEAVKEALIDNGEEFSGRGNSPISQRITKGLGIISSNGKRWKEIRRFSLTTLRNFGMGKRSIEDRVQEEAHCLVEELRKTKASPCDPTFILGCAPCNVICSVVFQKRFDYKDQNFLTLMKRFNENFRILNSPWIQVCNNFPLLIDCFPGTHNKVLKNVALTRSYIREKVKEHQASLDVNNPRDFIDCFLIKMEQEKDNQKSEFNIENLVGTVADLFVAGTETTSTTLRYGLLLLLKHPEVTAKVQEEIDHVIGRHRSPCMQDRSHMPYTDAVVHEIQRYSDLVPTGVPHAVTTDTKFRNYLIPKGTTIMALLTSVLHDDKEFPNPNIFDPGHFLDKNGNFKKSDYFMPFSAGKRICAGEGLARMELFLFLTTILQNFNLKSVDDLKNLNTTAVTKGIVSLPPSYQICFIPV", "assay": "CYP inhibition in human liver microsome, 2C8", "assay_type": "in vitro ADME", "settings": "human liver microsomes, substrate amodiaquine, top 50 μM; read-out: CYP450 inhibition IC50 2C8", "method": "as §2"}, "[9]": {"target": "T4, CYP 2C9 (Homo sapiens, UniProt P11712)", "T4 construct": "from tissue; host or cells: human liver microsomes", "T4 sequence (P11712 whole entry)": "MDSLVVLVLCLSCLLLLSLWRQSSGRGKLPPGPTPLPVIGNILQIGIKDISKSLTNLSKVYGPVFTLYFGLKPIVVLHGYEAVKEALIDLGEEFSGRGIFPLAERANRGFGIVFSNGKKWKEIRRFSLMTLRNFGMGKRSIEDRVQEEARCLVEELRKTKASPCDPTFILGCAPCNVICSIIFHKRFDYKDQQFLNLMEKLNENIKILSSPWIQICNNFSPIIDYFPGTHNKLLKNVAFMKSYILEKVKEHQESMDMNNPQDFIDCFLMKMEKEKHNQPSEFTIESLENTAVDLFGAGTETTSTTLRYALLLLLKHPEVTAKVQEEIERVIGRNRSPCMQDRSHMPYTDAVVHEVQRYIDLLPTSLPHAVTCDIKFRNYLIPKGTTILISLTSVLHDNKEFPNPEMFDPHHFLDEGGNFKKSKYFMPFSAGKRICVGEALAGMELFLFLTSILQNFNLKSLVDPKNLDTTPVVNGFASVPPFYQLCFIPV", "assay": "CYP inhibition in human liver microsome, 2C9", "assay_type": "in vitro ADME", "settings": "human liver microsomes, substrate diclofenac, top 50 μM; read-out: CYP450 inhibition IC50 2C9", "method": "as §2"}, "[10]": {"target": "T5, CYP 2C19 (Homo sapiens, UniProt P33261)", "T5 construct": "from tissue; host or cells: human liver microsomes", "T5 sequence (P33261 whole entry)": "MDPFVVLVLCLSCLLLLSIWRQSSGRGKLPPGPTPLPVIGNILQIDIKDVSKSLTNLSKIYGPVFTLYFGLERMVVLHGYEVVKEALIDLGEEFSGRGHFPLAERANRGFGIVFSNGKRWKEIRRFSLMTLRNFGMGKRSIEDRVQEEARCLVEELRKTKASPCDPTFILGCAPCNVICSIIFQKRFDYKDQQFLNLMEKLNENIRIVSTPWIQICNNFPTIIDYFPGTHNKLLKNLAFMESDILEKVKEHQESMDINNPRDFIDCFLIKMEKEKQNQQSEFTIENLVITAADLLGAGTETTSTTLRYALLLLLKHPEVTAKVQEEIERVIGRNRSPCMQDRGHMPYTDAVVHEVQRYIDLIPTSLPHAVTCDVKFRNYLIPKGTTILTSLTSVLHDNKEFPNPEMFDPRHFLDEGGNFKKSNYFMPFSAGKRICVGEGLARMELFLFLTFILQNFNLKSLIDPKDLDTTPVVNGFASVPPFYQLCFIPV", "assay": "CYP inhibition in human liver microsome, 2C19", "assay_type": "in vitro ADME", "settings": "human liver microsomes, substrate s-mephenytoin, top 50 μM; read-out: CYP450 inhibition IC50 2C19", "method": "as §2"}, "[11]": {"target": "T6, CYP 2D6 (Homo sapiens, UniProt P10635)", "T6 construct": "from tissue; host or cells: human liver microsomes", "T6 sequence (P10635 whole entry)": "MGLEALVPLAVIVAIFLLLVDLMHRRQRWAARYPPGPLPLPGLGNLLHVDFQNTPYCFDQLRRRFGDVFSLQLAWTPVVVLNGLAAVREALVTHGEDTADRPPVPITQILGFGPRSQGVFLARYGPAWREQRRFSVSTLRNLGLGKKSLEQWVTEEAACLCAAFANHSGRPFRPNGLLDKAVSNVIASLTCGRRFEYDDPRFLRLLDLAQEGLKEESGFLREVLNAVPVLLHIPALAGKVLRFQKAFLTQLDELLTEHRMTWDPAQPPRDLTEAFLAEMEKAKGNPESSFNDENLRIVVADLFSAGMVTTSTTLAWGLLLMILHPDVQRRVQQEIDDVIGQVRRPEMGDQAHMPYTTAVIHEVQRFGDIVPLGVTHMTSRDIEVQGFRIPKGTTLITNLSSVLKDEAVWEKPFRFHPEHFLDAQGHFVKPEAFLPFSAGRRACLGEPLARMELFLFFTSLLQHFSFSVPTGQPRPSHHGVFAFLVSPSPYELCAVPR", "assay": "CYP inhibition in human liver microsome, 2D6", "assay_type": "in vitro ADME", "settings": "human liver microsomes, substrate dextromethorphan, top 50 μM; read-out: CYP450 inhibition IC50 2D6", "method": "as §2"}, "[12]": {"target": "T7, CYP 3A4 (Homo sapiens, UniProt P08684)", "T7 construct": "from tissue; host or cells: human liver microsomes", "T7 sequence (P08684 whole entry)": "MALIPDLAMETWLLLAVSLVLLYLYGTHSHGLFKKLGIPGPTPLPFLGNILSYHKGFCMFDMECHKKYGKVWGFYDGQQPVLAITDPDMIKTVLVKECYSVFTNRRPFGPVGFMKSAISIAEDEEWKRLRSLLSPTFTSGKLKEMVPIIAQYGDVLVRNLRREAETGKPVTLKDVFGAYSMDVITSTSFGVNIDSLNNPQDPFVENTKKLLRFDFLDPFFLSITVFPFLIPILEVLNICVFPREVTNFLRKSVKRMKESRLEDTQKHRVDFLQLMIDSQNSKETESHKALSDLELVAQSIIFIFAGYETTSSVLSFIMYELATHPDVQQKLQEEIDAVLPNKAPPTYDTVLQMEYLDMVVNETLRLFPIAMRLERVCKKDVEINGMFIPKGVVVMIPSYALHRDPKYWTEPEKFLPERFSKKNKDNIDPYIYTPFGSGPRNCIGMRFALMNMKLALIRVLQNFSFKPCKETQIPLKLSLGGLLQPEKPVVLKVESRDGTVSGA", "assay": "CYP inhibition in human liver microsome, 3A4", "assay_type": "in vitro ADME", "settings": "human liver microsomes, substrate midazolam, top 50 μM; read-out: CYP450 inhibition IC50 3A4", "method": "as §2"}, "[13]": {"target": "T8, THRβ-LBD (Homo sapiens, UniProt P10828)", "T8 sequence (P10828 217-461 limits assumed)": "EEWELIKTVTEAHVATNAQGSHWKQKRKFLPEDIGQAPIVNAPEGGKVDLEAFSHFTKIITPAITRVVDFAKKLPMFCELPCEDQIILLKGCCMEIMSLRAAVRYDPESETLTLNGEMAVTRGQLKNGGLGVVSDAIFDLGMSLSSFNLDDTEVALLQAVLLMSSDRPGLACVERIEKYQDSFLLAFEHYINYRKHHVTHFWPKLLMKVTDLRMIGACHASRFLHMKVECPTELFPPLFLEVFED", "description": "(§3) The coactivator recruitment assay was performed using LanthaScreen™ TR-FRET TR coactivator assay kit (ThermoFisher). […] THRβ-LBD (ligand binding domain) or THRα-LBD was added to test compounds at a final concentration of 2.5 nM followed by addition of a mixture of the fluorescein-coactivator peptide and terbium-conjugated anti-GST antibody. The diluted test compounds were mixed with the same volume of other reagents (10 μl:10 μl). After 2-hour incubation period at room temperature, the plate was read at wavelengths of 520 nm and 495 nm using Envison plate reader (PerkinElmer). […] In addition, the selectivity for each compound was normalized for the selectivity of T3 run in the same assay."}, "[14]": {"target": "T8, THRβ-LBD", "assay": "THR coactivator recruitment assay (LanthaScreen TR-FRET), THRβ", "description": "as §3"}, "[15]": {"settings": "maximum activity relative to the maximum activity of 500 nM T3"}, "[16]": {"settings": "high cholesterol diet mice, 0.3, 1, 3 mg/kg daily oral gavage, 2-week treatment"}}}
{"smiles": "N[C@@H](Cc1cc(I)c(Oc2ccc(O)c(I)c2)c(I)c1)C(=O)O", "note": "[Example T3, 3,5,3′-triiodo-L-thyronine, reference compound]", "values": [{"measurement": "heart rate increase", "setting": "[1]", "value": 30, "unit": "%"}, {"measurement": "expression of cardiac α-MHC", "setting": "[2]", "value": "responsive"}]}
{"smiles": "CSc1ccc(C(=O)/C=C/c2cc(C)c(OC(C)(C)C(=O)O)c(C)c2)cc1", "note": "[Elafibranor, reference compound]", "values": [{"measurement": "liver weight, liver TC, liver TG, plasma TC, LDL-c, ALT, fibrosis, steatosis", "setting": "[3]", "value": "reduced all or some of these parameters"}]}
{"smiles": "[2H]c1c(C)c(Oc2cc(C(C([2H])([2H])[2H])C([2H])([2H])[2H])c(=O)[nH]n2)c(Cl)c([2H])c1-n1nc(C#N)c(=O)[nH]c1=O", "note": "[Example 50, 2-(3-chloro-5-methyl-4-((6-oxo-5-(propan-2-yl-1,1,1,3,3,3-d6)-1,6-dihydropyridazin-3-yl)oxy)phenyl-2,6-d2)-3,5-dioxo-2,3,4,5-tetrahydro-1,2,4-triazine-6-carbonitrile]", "values": [{"measurement": "EC50", "setting": "[4]; EC50 class from TR-FRET ratio 520:495 dose response, read-out: THRα binding", "value": "1 to 10", "unit": "µM"}, {"measurement": "THRα Bmax % (vs T3)", "setting": "[4]; [15]", "value": 36, "unit": "%"}, {"measurement": "LDL-c", "setting": "[5]", "value": "significantly reduced"}, {"measurement": "liver TC", "setting": "[5]", "value": "significantly reduced"}, {"measurement": "plasma TC", "setting": "[5]", "value": "significantly reduced"}, {"measurement": "compound concentration in heart", "setting": "[6]; at end of study, high cholesterol diet mice", "value": "not detectable"}, {"measurement": "blood and liver distribution", "setting": "[6]; compound concentration at end of study, high cholesterol diet mice", "value": "similar"}, {"measurement": "efficacy in reducing liver cholesterol compared with MGL-3196", "setting": "[6]; high cholesterol diet mice", "value": "as effective as MGL-3196"}, {"measurement": "LDL-c", "setting": "[6]; [16]", "value": "reduced"}, {"measurement": "plasma TC", "setting": "[6]; [16]", "value": "reduced"}, {"measurement": "expression of DIO1 in liver", "setting": "[6]; qPCR, mRNA of THRβ target gene, high cholesterol diet mice", "value": "dose-dependently upregulated"}, {"measurement": "IC50", "setting": "[7]", "value": "> 50", "unit": "µM"}, {"measurement": "IC50", "setting": "[8]", "value": 4.19, "unit": "µM"}, {"measurement": "IC50", "setting": "[9]", "value": 41.4, "unit": "µM"}, {"measurement": "IC50", "setting": "[10]", "value": "> 50", "unit": "µM"}, {"measurement": "IC50", "setting": "[11]", "value": "> 50", "unit": "µM"}, {"measurement": "IC50", "setting": "[12]", "value": "> 50", "unit": "µM"}, {"measurement": "selectivity ratio", "setting": "[13]", "value": 13.5}, {"measurement": "EC50", "setting": "[14]", "value": "0.1 to 1", "unit": "µM"}, {"measurement": "THRβ Bmax % (vs T3)", "setting": "[14]; [15]", "value": 51, "unit": "%"}]}
